Source: PubChem BioAssay AID1918936 (Molecular Pharmacology Branch, DTP, NCI, 2023)

Tested on: 349418-098-R-PDC complex spheroid viability
Test: Anticancer human tumor 349418-098-R-PDC patient-derived lung adenocarcinoma cell line growth inhibition
Settings: for IC50: curve of first compound; for viability, T/C: stronger effect = lower value; active = viability on the fitted dose curve at most 10% of control; inactive = the rest
Outline: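 Complex spheroids of tumor cells with HUVEC and human MSCs, exposed to iadademstat combined with other agents. Each agent tested in half-log steps from near clinical Cmax (else 10 microM top), DMSO ≤0.25%.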

[1] = second compound 0.1 µM, first compound 0.00949 µM
[2] = second compound 0.1 µM, first compound 0.03 µM
[3] = second compound 0.1 µM, first compound 0.0949 µM
[4] = second compound 0.1 µM, first compound 0.3 µM
[5] = second compound 0.1 µM, first compound 0.949 µM
[6] = second compound 0.1 µM, first compound 3 µM
[7] = second compound 0.316 µM, first compound 0.00949 µM
[8] = second compound 0.316 µM, first compound 0.03 µM
[9] = second compound 0.316 µM, first compound 0.0949 µM
[10] = second compound 0.316 µM, first compound 0.3 µM
[11] = second compound 0.316 µM, first compound 0.949 µM
[12] = second compound 0.316 µM, first compound 3 µM
[13] = second compound 1 µM, first compound 0.00949 µM
[14] = second compound 1 µM, first compound 0.03 µM
[15] = second compound 1 µM, first compound 0.0949 µM
[16] = second compound 1 µM, first compound 0.3 µM
[17] = second compound 1 µM, first compound 0.949 µM
[18] = second compound 1 µM, first compound 3 µM
[19] = second compound 3.16 µM, first compound 0.00949 µM
[20] = second compound 3.16 µM, first compound 0.03 µM
[21] = second compound 3.16 µM, first compound 0.0949 µM
[22] = second compound 3.16 µM, first compound 0.3 µM
[23] = second compound 3.16 µM, first compound 0.949 µM
[24] = second compound 3.16 µM, first compound 3 µM
[25] = second compound 10 µM, first compound 0.00949 µM
[26] = second compound 10 µM, first compound 0.03 µM
[27] = second compound 10 µM, first compound 0.0949 µM
[28] = second compound 10 µM, first compound 0.3 µM
[29] = second compound 10 µM, first compound 0.949 µM
[30] = second compound 10 µM, first compound 3 µM
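Also: spheroids exposed to agents for seven days before readout.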
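For viability, T/C in this document: 100% = DMSO vehicle control wells.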

Nc1ccccc1NC(=O)c1ccc(CNC(=O)OCc2cccnc2)cc1 + NC1CCC(NC2CC2c2ccccc2)CC1
active: viability, T/C [6] 5.1% | viability, T/C [12] 5.32% | viability, T/C [18] 5.11% | viability, T/C [24] 5.33% | viability, T/C [30] 4.33%
269 nM: IC50 (second compound 10 µM)
244 nM: IC50 (second compound 0.1 µM)
314 nM: IC50 (second compound 3.16 µM)
inactive: viability, T/C [1] 106% | viability, T/C [2] 88.6% | viability, T/C [3] 76.2% | viability, T/C [4] 46.2% | viability, T/C [5] 15.4% | viability, T/C [7] 102% | viability, T/C [8] 97.3% | viability, T/C [9] 81.8% | viability, T/C [10] 48.9% | viability, T/C [11] 15.4% | viability, T/C [13] 117% | viability, T/C [14] 85.9% | viability, T/C [15] 73.6% | viability, T/C [16] 46.3% | viability, T/C [17] 15.9% | viability, T/C [19] 104% | viability, T/C [20] 85.8% | viability, T/C [21] 83.6% | viability, T/C [22] 53% | viability, T/C [23] 15.6% | viability, T/C [25] 96.1% | viability, T/C [26] 91.1% | viability, T/C [27] 75.5% | viability, T/C [28] 50.2% | viability, T/C [29] 12.7%
279 nM: IC50 (second compound 0.316 µM)
224 nM: IC50 (second compound 1 µM)

COc1cc(C2c3cc4c(cc3C(OC3OC5COC(C)OC5C(O)C3O)C3COC(=O)C23)OCO4)cc(OC)c1O (stereo not given) + NC1CCC(NC2CC2c2ccccc2)CC1
57.1 nM: IC50 (second compound 10 µM)
86.5 nM: IC50 (second compound 1 µM)
active: viability, T/C [5] 6.37% | viability, T/C [6] 4.96% | viability, T/C [10] 15.1% | viability, T/C [11] 6.33% | viability, T/C [12] 5.43% | viability, T/C [17] 6.74% | viability, T/C [18] 5.14% | viability, T/C [23] 6.91% | viability, T/C [24] 5.13% | viability, T/C [29] 6.9% | viability, T/C [30] 5.24%
89.9 nM: IC50 (second compound 0.316 µM)
79.5 nM: IC50 (second compound 0.1 µM)
85.8 nM: IC50 (second compound 3.16 µM)
inactive: viability, T/C [1] 105% | viability, T/C [2] 83.1% | viability, T/C [3] 44.7% | viability, T/C [4] 14.6% | viability, T/C [7] 91.9% | viability, T/C [8] 100% | viability, T/C [9] 47.7% | viability, T/C [13] 108% | viability, T/C [14] 91.5% | viability, T/C [15] 45.6% | viability, T/C [16] 16% | viability, T/C [19] 106% | viability, T/C [20] 86.4% | viability, T/C [21] 47.6% | viability, T/C [22] 14.2% | viability, T/C [25] 89.6% | viability, T/C [26] 67% | viability, T/C [27] 37.2% | viability, T/C [28] 13.8%

CC1(C)CCC(CN2CCN(c3ccc(C(=O)NS(=O)(=O)c4ccc(NCC5CCOCC5)c([N+](=O)[O-])c4)c(Oc4cnc5[nH]ccc5c4)c3)CC2)=C(c2ccc(Cl)cc2)C1 + NC1CC1c1ccc(-c2cccc(O)c2)cc1
1700 nM: IC50 (second compound 10 µM)
2030 nM: IC50 (second compound 1 µM) | IC50 (second compound 3.16 µM)
active: viability, T/C (second compound 0.1 µM, first compound 10 µM) 0.38% | viability, T/C (second compound 0.316 µM, first compound 10 µM) 0.15% | viability, T/C (second compound 1 µM, first compound 10 µM) 0.17% | viability, T/C (second compound 3.16 µM, first compound 10 µM) 0.16% | viability, T/C (second compound 10 µM, first compound 10 µM) 0.58%
1860 nM: IC50 (second compound 0.1 µM)
inactive: viability, T/C (second compound 0.1 µM, first compound 0.0316 µM) 111% | viability, T/C (second compound 0.1 µM, first compound 0.1 µM) 106% | viability, T/C (second compound 0.1 µM, first compound 0.316 µM) 104% | viability, T/C (second compound 0.1 µM, first compound 1 µM) 80.5% | viability, T/C (second compound 0.1 µM, first compound 3.16 µM) 23.9% | viability, T/C (second compound 0.316 µM, first compound 0.0316 µM) 113% | viability, T/C (second compound 0.316 µM, first compound 0.1 µM) 111% | viability, T/C (second compound 0.316 µM, first compound 0.316 µM) 108% | viability, T/C (second compound 0.316 µM, first compound 1 µM) 82.5% | viability, T/C (second compound 0.316 µM, first compound 3.16 µM) 22.9% | viability, T/C (second compound 1 µM, first compound 0.0316 µM) 119% | viability, T/C (second compound 1 µM, first compound 0.1 µM) 113% | viability, T/C (second compound 1 µM, first compound 0.316 µM) 108% | viability, T/C (second compound 1 µM, first compound 1 µM) 94.1% | viability, T/C (second compound 1 µM, first compound 3.16 µM) 22.5% | viability, T/C (second compound 3.16 µM, first compound 0.0316 µM) 118% | viability, T/C (second compound 3.16 µM, first compound 0.1 µM) 109% | viability, T/C (second compound 3.16 µM, first compound 0.316 µM) 112% | viability, T/C (second compound 3.16 µM, first compound 1 µM) 95.2% | viability, T/C (second compound 3.16 µM, first compound 3.16 µM) 21.9% | viability, T/C (second compound 10 µM, first compound 0.0316 µM) 96.3% | viability, T/C (second compound 10 µM, first compound 0.1 µM) 98.9% | viability, T/C (second compound 10 µM, first compound 0.316 µM) 93.2% | viability, T/C (second compound 10 µM, first compound 1 µM) 83.7% | viability, T/C (second compound 10 µM, first compound 3.16 µM) 10.5%
1870 nM: IC50 (second compound 0.316 µM)
